Assay results reported in patent US5126246A, “Reagent for analysis of triglycerides and analysis using the same” (priority 1988, dated 1992).
“And” between values parts separate entries of the source, which are not always exact repeats. Equal entries are not always repeated. Values belong to the compound of their own block, whether it stands above or below them.

Legend:
[1] = system: monoglyceride lipase; assay: Effects of surface active agents and metal ions on the monoglyceride lipase; assay type: biochemical, Bacillus stearothermophilus H-165; conditions: for Effect of added reagent on monoglyceride lipase activity: Table 2; for Activity of lipase (%): no reagent 100
Experimental: The mon[…] is not affected by the addition of divalent metal ions such as Ca^++ and Mg^++.
MEASUREMENT METHOD OF ENZYMATIC ACTIVITY OF MON[…]
(§1) To 0.4 ml of a solution of the above composition, is added 50 μl of 10 mM monolaurin (0.5 % aqueous solution of "Triton X-100"). The resultant mixture is pre-incubated at 37° C. for 2-3 minutes and 50 μl of an enzyme solution is added to initiate a reaction. Exactly 10 minutes later, 2.5 ml of 5 % SDS (sodium dodecyl sulfate) is added to terminate the reaction. The absorbance is measured at 550 nm. Regarding the enzymatic activity, the activity capable of producing 1 μmole of glycerol per minute is defined at 1 Unit (1 U). The following equation is used for calculation of enzymatic activity (potency): [formula] wherein ΔA 550: Absorbance at the wavelength of 550 nm

[2] = system: monoglyceride lipase; assay: Substrate specificity of the monoglyceride lipase (enzymatic activity assay, glycerol formed); assay type: biochemical, Bacillus stearothermophilus H-165; conditions: for Activity of lipase (%): relative activity of monoglyceride lipase on the substrate, Monolaurin 100.0; for Glycerol hydrolyzed from substrate in the presence of the monoglyceride lipase: diglyceride or triglyceride used as substrate
Experimental: (8) Substrate specificity: The substrate specificity of the monoglyceride lipase in this invention is investigated under conditions where the below-described assay method of enzymatic activity for the monoglyceride lipase is conducted.
MEASUREMENT METHOD OF ENZYMATIC ACTIVITY OF MONOGLYCERIDE LIPASE
as §1

[3] = system: Pancreatic lipase and the monoglyceride lipase; assay: Glycerol liberated from α,β-diglyceride substrates by pancreatic lipase plus monoglyceride lipase; assay type: biochemical; conditions: pancreatic lipase and monoglyceride lipase applied
Description: (2) Substrate specificity of the monoglyceride lipase upon use of α,β-diglyceride as a substrate:
(§2) (i) Pancreatic lipase and the monoglyceride lipase are applied to the below-described α,β-diglyceride substrates. Their α-positions are hydrolyzed by the pancreatic lipase and then the resulting β-monoglycerides are allowed to react with the monoglyceride lipase, in order to analyze glycerol thus liberated. Glycerol is detected with respect to the substrates, namely,α-oleyl-β-palmitoyldiglyceride, α-palmitoly-β-oleolyldiglyceride and α,β-dilinoleylglyceride. However, glycerol is not detected when only pancreatic lipase is used.

[4] = molecular target: T1, pancreatic lipase (Sus scrofa, UniProt P00591); assay: Glycerol liberated from α,β-diglyceride substrates by pancreatic lipase only; assay type: biochemical; conditions: only pancreatic lipase used
T1 sequence (P00591 1-450): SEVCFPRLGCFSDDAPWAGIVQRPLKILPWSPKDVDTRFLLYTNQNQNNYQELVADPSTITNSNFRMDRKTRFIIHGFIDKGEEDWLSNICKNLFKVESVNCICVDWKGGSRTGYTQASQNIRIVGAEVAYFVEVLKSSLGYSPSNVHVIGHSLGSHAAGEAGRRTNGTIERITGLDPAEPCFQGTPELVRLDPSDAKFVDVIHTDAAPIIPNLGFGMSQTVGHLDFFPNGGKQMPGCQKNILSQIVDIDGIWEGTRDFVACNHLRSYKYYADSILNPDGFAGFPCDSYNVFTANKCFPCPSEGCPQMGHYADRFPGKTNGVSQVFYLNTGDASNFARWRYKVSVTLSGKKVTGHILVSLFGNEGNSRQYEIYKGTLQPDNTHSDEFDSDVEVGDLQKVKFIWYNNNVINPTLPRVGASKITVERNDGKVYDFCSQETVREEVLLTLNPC
Description: as §2

[5] = reagent concentration 1 mM, 10 min

Compound: [Ca+2].[Cl-].[Cl-] [CaCl2, calcium chloride]
Effect of added reagent on monoglyceride lipase activity [1]: not affected
Activity of lipase (%) [1, 5]: 100.0%

Compound: C[C@H](CCC(=O)O)[C@H]1CC[C@H]2[C@@H]3[C@H](O)C[C@@H]4C[C@H](O)CC[C@]4(C)[C@H]3C[C@H](O)[C@]12C [Cholic acid]
Effect of added reagent on monoglyceride lipase activity [1]: inhibition of the activity is observed in the high concentration range
Activity of lipase (%) [1, 5]: 100.0%
Activity of lipase (%) ([1]; reagent concentration 10 mM): 92.6%

Compound: CCCCCCCCCCCCCCCCCC(=O)OCC(O)CO (stereo not drawn) [Monostearin]
Activity of lipase (%) [2]: 27.6%

Compound: O=C(O)CN(CCN(CC(=O)O)CC(=O)O)CC(=O)O [EDTA]
Activity of lipase (%) [1, 5]: 86.0%

Compound: [Cl-].[Cl-].[Mg+2] [MgCl2, magnesium chloride]
Effect of added reagent on monoglyceride lipase activity [1]: not affected
Activity of lipase (%) [1, 5]: 100.0%

Compound: CC(=O)OCC(COC(C)=O)OC(C)=O [Triacetin]
Activity of lipase (%) [2]: 0%

Compound: CCCCCCCC/C=C\CCCCCCCC(=O)OCC(O)CO (stereo not drawn) [Monoolein]
Activity of lipase (%) [2]: 56.3% and 75.6%

Compound: CCCCCCCC/C=C\CCCCCCCC(=O)OCC(COC(=O)CCCCCCC/C=C\CCCCCCCC)OC(=O)CCCCCCC/C=C\CCCCCCCC [Triolein]
Glycerol hydrolyzed from substrate in the presence of the monoglyceride lipase [2]: no glycerol hydrolyzed is detected
Activity of lipase (%) [2]: 0%

Compound: CCCCCCCCCCCC(=O)OCC(O)CO (stereo not drawn) [Monolaurin]
Activity of lipase (%) [2]: 100.0%

The next lines start with the values.

Activity of lipase (%) [2]: 10.1%
Compound: CC(=O)OCC(O)CO (stereo not drawn) [Monoacetin]

Glycerol hydrolyzed from substrate in the presence of the monoglyceride lipase [2]: no glycerol hydrolyzed is detected
Activity of lipase (%) [2]: 0%
Compound: CCCCC/C=C\C/C=C\CCCCCCCC(=O)OCC(CO)OC(=O)CCCCCCC/C=C\C/C=C\CCCCC (stereo not drawn) [1,2-dilinolein]

Activity of lipase (%) [2]: 39.5%
Compound: CCCCCCCCCCCCCCCC(=O)OCC(O)CO (stereo not drawn) [Monopalmitin]

Activity of lipase (%) [2]: 47.1%
Compound: CCCC(=O)OCC(O)CO (stereo not drawn) [Monobutyrin]

Activity of lipase (%) [2]: 89.1%
Compound: CCCCCCCCCC(=O)OCC(O)CO (stereo not drawn) [Monocaprin]

Glycerol liberated [3]: detected
Glycerol liberated [4]: not detected
Compound: CCCCCCCC/C=C\CCCCCCCC(=O)OCC(CO)OC(=O)CCCCCCCCCCCCCCC (stereo not drawn) [α-oleyl-β-palmitoyldiglyceride]

Glycerol hydrolyzed from substrate in the presence of the monoglyceride lipase [2]: no glycerol hydrolyzed is detected
Activity of lipase (%) [2]: 0%
Compound: CCCCC/C=C\C/C=C\CCCCCCCC(=O)OCC(O)COC(=O)CCCCCCC/C=C\C/C=C\CCCCC [1,3-dilinolein]

Glycerol liberated [3]: detected
Glycerol liberated [4]: not detected
Compound: CCCCC/C=C\C/C=C\CCCCCCCC(=O)OCC(CO)OC(=O)CCCCCCC/C=C\C/C=C\CCCCC (stereo not drawn) [α,β-dilinoleylglyceride]

Glycerol liberated [3]: detected
Glycerol liberated [4]: not detected
Compound: CCCCCCCC/C=C\CCCCCCCC(=O)OC(CO)COC(=O)CCCCCCCCCCCCCCC (stereo not drawn) [α-palmitoly-β-oleolyldiglyceride]

Activity of lipase (%) [2]: 85.7%
Compound: CCCCCCCCCCCCCC(=O)OCC(O)CO (stereo not drawn) [Monomyristin]

Activity of lipase (%) [2]: 0%
Compound: CCCC(=O)OCC(COC(=O)CCC)OC(=O)CCC [Tributyrin]
